The record followed here is US9890138B2, “Diaminopyrimidine derivatives and processes for the preparation thereof” (YUHAN CORPORATION, priority 2011, dated 2018).

T1 sequence (Q13639 1-387 isoform Q13639-2): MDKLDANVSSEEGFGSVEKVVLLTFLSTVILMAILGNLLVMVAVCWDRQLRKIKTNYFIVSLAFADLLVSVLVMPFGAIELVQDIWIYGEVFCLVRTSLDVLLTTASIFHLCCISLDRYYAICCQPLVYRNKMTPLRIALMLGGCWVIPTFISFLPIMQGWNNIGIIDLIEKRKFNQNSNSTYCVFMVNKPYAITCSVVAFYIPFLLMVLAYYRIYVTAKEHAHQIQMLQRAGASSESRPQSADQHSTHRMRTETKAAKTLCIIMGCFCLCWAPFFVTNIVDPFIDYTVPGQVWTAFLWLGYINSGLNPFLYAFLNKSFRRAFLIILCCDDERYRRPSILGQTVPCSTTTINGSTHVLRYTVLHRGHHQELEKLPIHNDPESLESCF

This experiment addresses T1, human 5-HT4(a) (Homo sapiens, UniProt Q13639).
T1 construct: host or cells: GeneBlAzer HTR4-CRE-bla CHO-K1 cells
Put plainly: Evaluation of agonistic activity in CHO-K1 cells expressing human 5-HT4(a) (GeneBlAzer HTR4-CRE-bla CHO-K1, beta-lactamase reporter). In kind it is cell-based. The settings on record: CHO-K1 cells stably expressing human 5-HT4(a). The procedure, abridged:
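Agonism read as CRE-driven β-lactamase activity: emission ratio 465/535 nm (excitation 410 nm) after 2 h substrate loading. Preceded by 5 h compound treatment, 8 concentrations, 1% DMSO in the added solution, of overnight-plated reporter CHO-K1 cells; EC50 by non-linear regression.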
For orientation: EC50 means the concentration giving half of the maximal effect. Turning to `CCCc1cc(N2CC[C@H](NC3CCN(C(C)=O)CC3)C2)nc(Nc2cccc(C#N)c2)n1` [Example 140, (S)-3-{4-[3-(1-piperidin-4-acetylpiperidin-4-ylamino)pyrrolidin-1-yl]-6-propylpyrimidin-2-ylamino}benzonitrile], the EC50 was 0.028 nM.
In turn, `CCCc1cc(N2CC[C@H](NC3CCCCCCC3)C2)nc(Nc2cccc(C#N)c2)n1` [Example 141, (S)-3-{4-[3-(cyclooctylamino)pyrrolidin-1-yl]-6-propylpyrimidin-2-ylamino}benzonitrile] came in with a half-maximal effective concentration (EC50) of 0.085 nM.
Under `CCCc1cc(N2CC[C@H](NC3CCC3)C2)nc(Nc2cccc(C#N)c2)n1` [Example 142, (S)-3-{4-[3-(cyclobutylamino)pyrrolidin-1-yl]-6-propylpyrimidin-2-ylamino}benzonitrile] stands 0.01 nM; under `CCCc1cc(N2CC[C@H](NC3CCCC3)C2)nc(Nc2cccc(C#N)c2)n1` [Example 143], 0.0066 nM; under `CCCc1cc(N2CC[C@H](NC3CN(C(=O)OC(C)(C)C)C3)C2)nc(Nc2cccc(C#N)c2)n1` [Example 144, (S)-tert-butyl 3-{1-[2-(3-cyanophenylamino)-6-propylpyrimidin-4-yl]pyrrolidin-3-ylamino}azetidine-1-carboxylate], 0.036 nM.
Under `CCCc1cc(N2CC[C@H](NCCOCc3ccccc3)C2)nc(Nc2cccc(C#N)c2)n1` [Example 145, (S)-3-(4-{3-[2-(benzyloxy)ethylamino]pyrrolidin-1-yl}-6-propylpyrimidin-2-ylamino)benzonitrile] stands 0.046 nM.
Under `CCCc1cc(N2CC[C@H](NC(=O)CC)C2)nc(Nc2cccc(C#N)c2)n1` [Example 146, (S)-N-{1-[2-(3-cyanophenylamino)-6-propylpyrimidin-4-yl]pyrrolidin-3-yl}propionamide] stands 0.084 nM.
With `C/C=C(\C)C(=O)N[C@H]1CCN(c2cc(CCC)nc(Nc3cccc(C#N)c3)n2)C1` [Example 149, (S,E)-N-{1-[2-(3-cyanophenylamino)-6-propylpyrimidin-4-yl]pyrrolidin-3-yl}-2-methylbut-2-enamide], the EC50 is 0.277 nM.
On to `CCCCCC(=O)N[C@H]1CCN(c2cc(CCC)nc(Nc3cccc(C#N)c3)n2)C1` [Example 150, (S)-N-{1-[2-(3-cyanophenylamino)-6-propylpyrimidin-4-yl]pyrrolidin-3-yl}hexanamide], for which the 50% effective concentration (EC50) turned out to be 0.41 nM.
`CCCc1cc(N2CC[C@H](NC(=O)CCc3ccccc3)C2)nc(Nc2cccc(C#N)c2)n1` [Example 151, (S)-N-{1-[2-(3-cyanophenylamino)-6-propylpyrimidin-4-yl]pyrrolidin-3-yl}-3-phenylpropanamide] had an EC50 of 0.334 nM. This EC50 and that of the compound before are within 1.5-fold of each other.
In turn, `CCCc1cc(N2CC[C@H](NC(=O)C(C)(C)O)C2)nc(Nc2cccc(C#N)c2)n1` [Example 153, (S)-N-{1-[2-(3-cyanophenylamino)-6-propylpyrimidin-4-yl]pyrrolidin-3-yl}-2-hydroxy-2-methylpropanamide] gave an EC50 of 0.228 nM.
Under `CCCc1cc(N2CC[C@H](NC(=O)CCc3ccc(O)cc3)C2)nc(Nc2cccc(C#N)c2)n1` [Example 155, (S)-N-{1-[2-(3-cyanophenylamino)-6-propylpyrimidin-4-yl]pyrrolidin-3-yl}-3-(4-hydroxyphenyl)propanamide] stands 0.417 nM; under `CCCc1cc(N2CC[C@H](NC(=O)CCC(C)=O)C2)nc(Nc2cccc(C#N)c2)n1` [Example 156, (S)-N-{1-[2-(3-cyanophenylamino)-6-propylpyrimidin-4-yl]pyrrolidin-3-yl}-4-oxopentanamide], 0.219 nM.
On to `CCCc1cc(N2CC[C@H](NC(=O)CO)C2)nc(Nc2cccc(C#N)c2)n1` [Example 157, (S)-N-{1-[2-(3-cyanophenylamino)-6-propylpyrimidin-4-yl]pyrrolidin-3-yl}-2-hydroxyacetamide], for which a half-maximal effect (EC50) was put at 0.044 nM. This EC50 is about 5-fold lower than that of the compound before.
In turn, `CCCc1cc(N2CC[C@H](NC(=O)COCc3ccccc3)C2)nc(Nc2cccc(C#N)c2)n1` [Example 158] displayed an EC50 of 0.436 nM.
Under `CCCc1cc(N2CC[C@H](NC(=O)CN(C)C)C2)nc(Nc2cccc(C#N)c2)n1` [Example 160] stands 0.121 nM.
Under `CCCc1cc(N2CC[C@H](NC(=O)CCN(C)C)C2)nc(Nc2cccc(C#N)c2)n1` [Example 161] stands 0.119 nM.
As to `CCCc1cc(N2CC[C@H](NC(=O)CCCN(C)C)C2)nc(Nc2cccc(C#N)c2)n1` [Example 162], it took 0.193 nM to reach a half-maximal effect (EC50).
Under `CCCc1cc(N2CC[C@H](NC(=O)CNC(=O)OCc3ccccc3)C2)nc(Nc2cccc(C#N)c2)n1` [Example 165, (S)-benzyl 2-{1-[2-(3-cyanophenylamino)-6-propylpyrimidin-4-yl]pyrrolidin-3-ylamino}-2-oxoethylcarbamate] stands 0.2 nM.
Under `CCCc1cc(N2CC[C@H](NC(=O)CCCNC(=O)OC(C)(C)C)C2)nc(Nc2cccc(C#N)c2)n1` [Example 166] stands 0.103 nM; under `CCCc1cc(N2CC[C@H](NC)C2)nc(Nc2ccc(C)c(C#N)c2)n1` [Example 170], 0.0013 nM; under `CCCc1cc(N2CCC(NCC)C2)nc(Nc2ccc(C)c(C#N)c2)n1` (stereo not shown) [Example 173], 0.004 nM.
Under `CCCc1cc(N2CC[C@H](NC)C2)nc(Nc2ccc(N)c([N+](=O)[O-])c2)n1` [Example 175] stands 0.229 nM; under `CCCc1cc(N2CC[C@H](NCC)C2)nc(Nc2ccc(N)c([N+](=O)[O-])c2)n1` [Example 176], 0.018 nM.
In turn, `CCCc1cc(N2CC[C@H](NCC)C2)nc(Nc2ccc(N)c([N+](=O)[O-])c2)n1` [Example 177] showed an EC50 of 0.02 nM.
Under `CCCc1cc(N2CC[C@H](NC)C2)nc(Nc2ccc(F)c(C#N)c2)n1` [Example 180] stands 0.0087 nM; under `CCCc1cc(N2CCC(N)C2)nc(Nc2ccc(F)c(C#N)c2)n1` (stereo not shown) [Example 182], 0.036 nM.
Under `CCCc1cc(N2CCC[C@H]2CO)nc(Nc2ccc3cc[nH]c3c2)n1` [Example 185] stands 0.015 nM; under `CCCc1cc(N2CCC[C@@H]2CO)nc(Nc2ccc3cc[nH]c3c2)n1` [Example 186], 0.382 nM.
`CCCc1cc(N2CCCC2CO)nc(Nc2ccc3cc[nH]c3c2)n1` (stereo not shown) [Example 187] had an EC50 of 0.037 nM.
Under `CCCc1cc(N2CCC[C@H]2COC)nc(Nc2ccc3cc[nH]c3c2)n1` [Example 189] stands 0.028 nM.
Under `CCCc1cc(N2CCCC2C)nc(Nc2ccc3cc[nH]c3c2)n1` (stereo not shown) [Example 190] stands 0.05 nM; under `CCCc1cc(N2CCC[C@H]2C(=O)OC)nc(Nc2ccc3cc[nH]c3c2)n1` [Example 191], 0.29 nM.
`CCCc1cc(N2CCC(NC(C)=O)C2)nc(Nc2ccc3cc[nH]c3c2)n1` (stereo not shown) [Example 192]: a half-maximal effect (EC50) was put at 0.02 nM.
Regarding `CCCc1cc(N2CCC[C@H]2CO)nc(Nc2cccc(C#N)c2)n1` [Example 194, (S)-3-{4-[2-(hydroxymethyl)pyrrolidin-1-yl]-6-propylpyrimidin-2-ylamino}benzonitrile], the EC50 is 0.2 nM.
Compound `CCCc1cc(N2CCC[C@H]2CO)nc(Nc2cccc(SC)c2)n1` [Example 195] displayed a concentration for a half-maximal effect (EC50) of 0.25 nM. This EC50 and that of the compound before are within 1.5-fold of each other.
Under `CCCc1cc(N2CCC[C@H]2CO)nc(Nc2ccc(Cl)c([N+](=O)[O-])c2)n1` [Example 196, (S)-{1-[2-(4-chloro-3-nitrophenylamino)-6-propylpyrimidin-4-yl]pyrrolidin-2-yl}methanol] stands 0.1 nM.
